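Assay format: 96-well plates, 48-hour exposure. At the TGI there is no net growth.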
Assays:
Test in all cases: inhibition of tumour cell growth, NCI panel, 48 h
KM20L2 colon = test system: KM20L2 colon
DLD-1 colon = test system: DLD-1 colon
RXF-631 renal = test system: RXF-631 renal
LXFL 529 NSCLC = test system: LXFL 529 NSCLC
M19-MEL melanoma = test system: M19-MEL melanoma
XF 498 CNS = test system: XF 498 CNS

SMILES	TGI (KM20L2 colon)	TGI (DLD-1 colon)	TGI (RXF-631 renal)	TGI (LXFL 529 NSCLC)	TGI (M19-MEL melanoma)	TGI (XF 498 CNS)
CCOc1cc2c(cc1OC)c[n+](C)c1c3cc(OC)c(OC)cc3ccc21	> 100 µM	> 100 µM	44.9 µM	> 100 µM	> 100 µM	
Cc1cnoc1/N=C1\C=C(Nc2oncc2C)C(=O)c2ccccc21	> 100 µM	> 100 µM	> 100 µM	> 100 µM		> 100 µM
COc1ccc(/C=C2\C(=O)N(C(=O)c3ccc(NC(C)=O)cc3)N=C2C)cc1OC		> 100 µM			> 100 µM	> 100 µM
Cc1c2ccccc2c(=O)n2c(-c3ccccn3)cccc12	> 100 µM	> 100 µM			> 100 µM	> 100 µM
CC(C)C(Sc1nc(-c2ccccc2)c(-c2ccccc2)[nH]1)C(=O)N/N=C/c1ccc(Cl)cc1 (configuration not stated)	46.2 µM	> 100 µM		82.8 µM	34.6 µM	
CC(C)NC1CCCCC2c3ccccc3C12O (configuration not stated)	> 100 µM			> 100 µM	> 100 µM	> 100 µM
CCO/C(O)=c1/s/c(=C2/SC(=S)N(c3ccc(C)cc3)C2=O)n(-c2ccccc2)c1=N				> 100 µM	> 100 µM	

— PubChem BioAssay (NCI)
